Measurements reported in patent US11976083B2, “Inhibitors of peptidylarginine deiminases” (Gilead Sciences, Inc., priority 2020, dated 2024).

Biological target: T1, human PAD4 (Homo sapiens, UniProt Q9UM07)
T1 construct: human PAD4 (NM_012387), A2-P663, was PCR amplified; His-SUMO (N, cleaved yes); made in house; host or cells: E. coli BL21(DE3)
Test: In vitro PAD4 BAEE biochemical assay
Conditions: BAEE substrate 3 mM, 5 nM PAD4, 2 mM calcium chloride; geometric mean of multiple experiments
Summary of the method: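 Ammonia produced by BAEE deimination (3 mM substrate, 2 h, 25 °C) was read as fluorescent isoindole after o-phthalaldehyde/DTT derivatization, ex 405 nm/em 535 nm. Human PAD4 at 5 nM final, 2 mM calcium, pH 7.6 MOPS; compound preincubated 30 min. IC50s, normalized to BB-Cl-Amidine and DMSO controls, were geometric-mean averaged.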

T1 sequence (Q9UM07 2-663): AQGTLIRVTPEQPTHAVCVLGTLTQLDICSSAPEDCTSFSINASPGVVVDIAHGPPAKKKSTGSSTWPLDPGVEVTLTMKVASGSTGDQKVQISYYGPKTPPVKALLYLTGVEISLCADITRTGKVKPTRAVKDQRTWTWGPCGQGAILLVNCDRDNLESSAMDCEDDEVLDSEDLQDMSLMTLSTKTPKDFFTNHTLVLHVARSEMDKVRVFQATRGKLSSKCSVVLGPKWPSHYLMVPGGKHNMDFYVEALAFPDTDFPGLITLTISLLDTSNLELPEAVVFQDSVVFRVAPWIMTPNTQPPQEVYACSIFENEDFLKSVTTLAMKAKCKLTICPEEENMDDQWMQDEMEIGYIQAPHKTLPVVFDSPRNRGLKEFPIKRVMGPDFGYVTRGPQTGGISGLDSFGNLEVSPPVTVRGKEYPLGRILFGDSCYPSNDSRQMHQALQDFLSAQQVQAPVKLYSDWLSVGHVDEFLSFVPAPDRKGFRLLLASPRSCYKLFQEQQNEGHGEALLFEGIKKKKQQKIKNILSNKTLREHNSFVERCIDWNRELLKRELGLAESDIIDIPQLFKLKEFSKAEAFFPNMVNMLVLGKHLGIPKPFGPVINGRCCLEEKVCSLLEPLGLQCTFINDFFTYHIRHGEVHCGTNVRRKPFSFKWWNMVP

| Structure (SMILES) | IC50 |
| --- | --- |
| CO[C@H]1C[C@@H]1n1c(-c2cc3ccc4nc3n2CC(F)(F)CCC[C@@H]2C[C@H]2C(=O)N[C@@H]4C)nc2cc(C(=O)N3C[C@H](N)[C@@H]4CC[C@H]3C4)cc(F)c21 [Example 470, (2~{R},5~{R},7~{R})-14-[5-[(1~{S},4~{R},5~{R})-4-amino-2-azabicyclo[3.2.1]octane-2-carbonyl]-7-fluoro-1-[(1~{S},2~{S})-2-methoxycyclopropyl]benzimidazol-2-yl]-11,11-difluoro-2-methyl-3,13,19-triazatetracyclo[11.5.2.0^{5,7}.0^{16,20}] icosa-1(18),14,16,19-tetraen-4-one] | 43 nM |
| C[C@H]1NC(=O)[C@@H]2C[C@H]2CCCC(F)(F)Cn2c(-c3nc4cc(C(=O)N5C[C@H](N)[C@@H]6CC[C@H]5C6)cc(Cl)c4n3C3CC3)cc3ccc1nc32 [Example 471, (2~{R},5~{R},7~{R})-14-[5-[(1~{S),4~{R},5~{R})-4-amino-2-azabicyclo[3.2.1]octane-2-carbonyl]-7-chloro-1-cyclopropyl-benzimidazol-2-yl]-11,11-difluoro-2-methyl-3,13,19-triazatetracyclo[11.5.2.0^{5,7}.0^{16,20}] icosa-1(18),14,16,19-tetraen-4-one] | 44 nM |
| C[C@H]1NC(=O)c2ccc(Cl)nc2CCCCCn2c(-c3nc4cc(C(=O)N5C[C@H](N)[C@@H]6CC[C@H]5C6)cc(F)c4n3C3CC3)cc3ccc1nc32 [Example 472, (2˜{R})-17-[5-[(1˜{S},4˜{R},5˜{R})-4-amino-2-azabicyclo[3.2.1]octane-2-carbonyl]-1-cyclopropyl-7-fluoro-benzimidazol-2-yl]-8-chloro-2-methyl-3,9,16,22-tetrazatetracyclo[14.5.2.0^{5,10}.0^{19,23}]tricosa-1(21),5(10),6,8,17,19,22-heptaen-4-one] | 42 nM |
| C[C@H]1NC(=O)c2ccc(Cl)nc2CCCCCn2c(-c3nc4cc(C(=O)N5C[C@H](N)[C@@H]6CC[C@H]5C6)cc(F)c4n3[C@@H]3C[C@H]3F)cc3ccc1nc32 [Example 473, (2~{R})-17-[5-[(1~{S},4~{R},5~{R})-4-amino-2-azabicyclo[3.2.1]octane-2-carbonyl]-7-fluoro-1-[(1~{R},2~{R})-2-fluorocyclopropyl]benzimidazol-2-yl]-8-chloro-2-methyl-3,9,16,22-tetrazatetracyclo[14.5.2.0^{5,10}.0^{19,23}] tricosa-1(22),5(10),6,8,17,19(23),20-heptaen-4-one] | 44 nM |
| C[C@H]1NC(=O)c2ccc(C(F)(F)F)nc2CCCCCn2c(-c3nc4cc(C(=O)N5C[C@H](N)[C@@H]6CC[C@H]5C6)cc(F)c4n3C3CC3)cc3ccc1nc32 [Example 474, (2~{R})-17-[5-[(1~{S},4~{R},5~{R})-4-amino-2-azabicyclo[3.2.1]octane-2-carbonyl]-1-cyclopropyl-7-fluoro-benzimidazol-2-yl]-2-methyl-8-(trifluoromethyl)-3,9,16,22-tetrazatetracyclo[14.5.2.0^{5,10}.0^{19,23}] tricosa-1(22),5(10),6,8,17,19(23),20-heptaen-4-one] | 49 nM |
| COc1cc(C(=O)N2C[C@H](N)[C@@H]3CC[C@H]2C3)cc2nc(-c3cc4ccc5nc4n3CC(F)(F)CCCCC3(CC3)C(=O)N[C@@H]5C)n(C)c12 [Example 475, (11~{R})-17-[5-[(1~{S},4~{R},5~{R})-4-amino-2-azabicyclo[3.2.1]octane-2-carbonyl]-7-methoxy-1-methyl-benzimidazol-2-yl]-3,3-difluoro-11-methyl-spiro[1,10,19-triazatricyclo[10.5.2.0^{15,18}]nonadeca-12(19),13,15(18),16-tetraene-8,1′-cyclopropane]-9-one] | 62 nM |
| C[C@H]1NC(=O)c2cc3ccccc3nc2CCCCCn2c(-c3nc4cc(C(=O)N5C[C@H](N)[C@@H]6CC[C@H]5C6)cc(F)c4n3C3CC3)cc3ccc1nc32 [Example 476, (2~{R})-21-[5-[(1~{S),4~{R},5~{R})-4-amino-2-azabicyclo[3.2.1]octane-2-carbonyl]-1-cyclopropyl-7-fluoro-benzimidazol-2-yl]-2-methyl-3,13,20,26-tetrazapentacyclo[18.5.2.0^{5,14).0^ {7,12}.0^{23,27}]heptacosa-1(26),5(14),6,8,10,12,21,23(27),24-nonaen-4-one] | 38 nM |
| C[C@H]1NC(=O)[C@@H]2C[C@H]2CCCC(F)(F)Cn2c(-c3nc4cc(C(=O)N5C[C@H](N)[C@@H]6CC[C@H]5C6)cc(F)c4n3[C@@H]3C[C@H]3F)cc3ccc1nc32 [Example 477, (2~{R},5~{R},7~{R})-14-[5-[(1~{S},4~{R},5~{R})-4-amino-2-azabicyclo[3.2.1]octane-2-carbonyl]-7-fluoro-1-[(1~{R},2~{R})-2-fluorocyclopropyl]benzimidazol-2-yl]-11,11-difluoro-2-methyl-3,13,19-triazatetracyclo[11.5.2.0^{5,7}.0^{16,20}] icosa-1(19),14,16(20),17-tetraen-4-one] | 35 nM |
| C[C@H]1NC(=O)c2c(ccnc2C(F)(F)F)CCCCCn2c(-c3nc4cc(C(=O)N5C[C@H](N)[C@@H]6CC[C@H]5C6)cc(F)c4n3C3CC3)cc3ccc1nc32 [Example 478, (2~{R})-17-[5-[(1~{S},4~{R},5~{R})-4-amino-2-azabicyclo[3.2.1]octane-2-carbonyl]-1-cyclopropyl-7-fluoro-benzimidazol-2-yl]-2-methyl-6-(trifluoromethyl)-3,7,16,22-tetrazatetracyclo[14.5.2.0^{5,10).0^{19,23}] tricosa-1(22),5(10),6,8,17,19(23),20-heptaen-4-one] | 50 nM |
| C[C@H]1NC(=O)[C@@H]2C[C@H]2CCCC(F)(F)Cn2c(-c3nc4cc(C(=O)N5C[C@H](N)[C@@H]6CC[C@H]5C6)cc(F)c4n3[C@H]3C[C@@H]3F)cc3ccc1nc32 [Example 479, (2~{R},5~{R},7~{R})-14-[5-[(1~{S},4~{R},5~{R})-4-amino-2-azabicyclo[3.2.1]octane-2-carbonyl]-7-fluoro-1-[(1~{S},2~{S})-2-fluorocyclopropyl]benzimidazol-2-yl]-11,11-difluoro-2-methyl-3,13,19-triazatetracyclo[11.5.2.0^{5,7}.0^{16,20}] icosa-1(19),14,16(20),17-tetraen-4-one] | 47 nM |
| C[C@H]1NC(=O)[C@@](F)(c2cccc(Cl)n2)CCCCCCn2c(-c3nc4cc(C(=O)N5C[C@H](N)[C@@H]6CC[C@H]5C6)cc(F)c4n3C3CC3)cc3ccc1nc32 [Example 480, (8~{S},11~{R})-17-[5-[(1~{S},4~{R},5~{R})-4-amino-2-azabicyclo[3.2.1]octane-2-carbonyl]-1-cyclopropyl-7-fluoro-benzimidazol-2-yl]-8-(6-chloro-2-pyridyl)-8-fluoro-11-methyl-1,10,19-triazatricyclo[10.5.2.0^{15,18}]nonadeca-12(19),13,15(18),16-tetraen-9-one] | 134 nM |
| C[C@H]1NC(=O)[C@](F)(c2cccc(Cl)n2)CCCCCCn2c(-c3nc4cc(C(=O)N5C[C@H](N)[C@@H]6CC[C@H]5C6)cc(F)c4n3C3CC3)cc3ccc1nc32 [Example 481, (8~{R},11~{R})-17-[5-[(1~{S},4~{R},5~{R})-4-amino-2-azabicyclo[3.2.1]octane-2-carbonyl]-1-cyclopropyl-7-fluoro-benzimidazol-2-yl]-8-(6-chloro-2-pyridyl)-8-fluoro-11-methyl-1,10,19-triazatricyclo[10.5.2.0^{15,18}]nonadeca-12(19),13,15(18),16-tetraen-9-one] | 231 nM |
